Source: US10550142B2, “Quercetin-based compound” (AMOREPACIFIC CORPORATION, priority 2016, dated 2020)

Target: T1, β-amyloid (Aβ1-42) (Homo sapiens, UniProt P05067)
T1 construct: β-amyloid (Aβ1-42, AnaSpec Inc, USA) was obtained; purchased AnaSpec Inc, USA
Test: Beta-amyloid aggregation inhibition, fluorescence analysis (Thioflavin T assay)
Format: biochemical
Conditions: compound 10 μM; for Increased RFU (amount of aggregated β-amyloid): Aβ1-42 0.1 mg/ml, 37° C., 150 minutes; for Increased RFU (% of Pos.Cont.): aggregated β-amyloid compared to the positive control (no compound) = 100; for decreased aggregation compared with the positive control: positive control taken as 100%
Procedure: The beta-amyloid aggregation inhibitory effect of quercetin 3-O-[3-O″-(E)-p-coumaroyl][β-D-glucopyranosyl-(1→3)-O-α-L-rhamnopyranosyl-(1→6)-O-β-D-glucopyranoside] and quercetin 3-O-[3-O″-(E)-p-coumaroyl][α-L-rhamnopyranosyl-(1→6)-O-β-D-glucopyranoside] was determined by fluorescence analysis (Thioflavin T assay). Specifically, β-amyloid (Aβ1-42, AnaSpec Inc, USA) was obtained and used at a concentration of 0.1 mg/ml. It was stored at −80° C. prior to use. Each of morin (20 μM), phenol red (20 μM), quercetin 3-O-[3-O″-(E)-p-coumaroyl][β-D-glucopyranosyl-(1→3)-O-α-L-rhamnopyranosyl-(1→6)-O-β-D-glucopyranoside] (1 mg/ml), and quercetin 3-O-[3-O″-(E)-p-coumaroyl][α-L-rhamnopyranosyl-(1→6)-O-β-D-glucopyranoside] (1 mg/ml) was diluted to these concentrations in DMSO. In order to determine the degree of inhibition of Aβ1-42 aggregation, each compound at the above concentration was diluted to 10 μM in 50 μL of 0.01 M sodium phosphate buffer solution. Then, 40 μL of 0.1 mg/ml Aβ1-42 was added thereto, followed by addition of 10 μL of 2 mM Thioflavin T. The fluorescence was then measured with a fluorescence spectrometer (RF-5300PC, SHIMADZU CORPORATION, Japan) at 37° C. and intervals of 5 minutes for 150 minutes. In the table above, “RFU” denotes relative fluorescence unit, and “increased RFU” indicates the amount of aggregated β-amyloid. “Increased RFU (% of Pos.Cont.)” indicates the percentage of aggregated β-amyloid compared to the positive control. “Novel substance 31” indicates quercetin 3-O-[3-O″-(E)-p-coumaroyl][β-D-glucopyranosyl-(1→3)-O-α-L-rhamnopyranosyl-(1→6)-O-β-D-glucopyranoside], and “novel substance 32” indicates quercetin 3-O-[3-O″-(E)-p-coumaroyl][α-L-rhamnopyranosyl-(1→6)-O-β-D-glucopyranoside].

T1 sequence (P05067 672-713 limits assumed): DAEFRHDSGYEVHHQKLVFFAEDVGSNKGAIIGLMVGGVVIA

Q: For `CC1OC(OCC2OC(Oc3c(-c4ccc(O)c(O)c4)oc4cc(O)cc(O)c4c3=O)C(O)C(OC(=O)/C=C/c3ccc(O)cc3)C2O)C(O)C(OC2OC(CO)C(O)C(O)C2O)C1O` [Novel substance 31, quercetin 3-O-[3-O″-(E)-p-coumaroyl][β-D-glucopyranosyl-(1→3)-O-α-L-rhamnopyranosyl-(1→6)-O-β-D-glucopyranoside]], which “Increased RFU (amount of aggregated β-amyloid)” value is on record?
A: 12955 RFU

Q: What about the “Increased RFU (% of Pos.Cont.)” value of the same compound?
A: 88.8%

Q: What about the “decreased aggregation compared with the positive control” value of the same compound?
A: 11.2%

Q: How did the “Increased RFU (amount of aggregated β-amyloid)” value turn out when `CC1OC(OCC2OC(Oc3c(-c4ccc(O)c(O)c4)oc4cc(O)cc(O)c4c3=O)C(O)C(OC(=O)/C=C/c3ccc(O)cc3)C2O)C(O)C(O)C1O` [Novel substance 32, quercetin 3-O-[3-O″-(E)-p-coumaroyl][α-L-rhamnopyranosyl-(1→6)-O-β-D-glucopyranoside]] was run?
A: 12148 RFU

Q: What about the “Increased RFU (% of Pos.Cont.)” value of the same compound?
A: 83.2%

Q: What about the “decreased aggregation compared with the positive control” value of the same compound?
A: 16.8%
